Values quoted from earlier work in patent publication US20220031739A1, “ANTI-VIRAL COMPOSITIONS AND METHODS OF USE THEREOF” (Eye Therapies LLC, priority 2020, published 2022).

Tested on: herpes simplex virus ("HSV")

## O=c1[nH]c(=O)n([C@H]2C[C@H](O)[C@@H](CO)O2)cc1C(F)(F)F [Trifluridine, trifluridine]
Likelihood especially high when used for long periods for deeper infections
  toxicity: causes toxicity of both virus and corneal cells
Superficial HSV infections
  time to treat superficial HSV infections from the start of treatment: ≤ 1 week
